Here are results for one compound from patent US20090176731A1 (priority 2005, published 2009).

For one assay, the system named is HUVEC. As to the kind of experiment: HUVEC assay, endothelial cell proliferation (WO 00/47212). The assay is classed as cell-based. Conditions: Homo sapiens.
For the next assay, the system named is range of models. The settings on record: once-daily oral administration; cited from earlier work.
The next assay concerns Calu-6 tumour xenograft. In words: in vivo solid tumour model, Calu-6 tumour xenograft (WO 00/47212). The settings on record: once-daily oral, 28 days.

Where two headings read alike, the source gives them in different places. Bounds are passed on as bounds.

`COc1cc2c(Oc3ccc4[nH]c(C)cc4c3F)ncnc2cc1OCCCN1CCCC1` [AZD2171, 4-(4-fluoro-2-methyl-1H-indol-5-yloxy)-6-methoxy-7-(3-(pyrrolidin-1-yl)propoxy)quinazoline]: the IC50 was over 500 nM in the assay with HUVEC (HUVEC, basal (unstimulated) proliferation, read-out: IC50 for inhibition of basal endothelial cell proliferation) and 0.4 ± 0.2 nM in the assay with HUVEC (VEGF-stimulated, HUVEC assay, read-out: IC50 for inhibition of VEGF-stimulated endothelial cell proliferation). The “anti-tumour activity in a range of models” value with range of models was “broad-spectrum anti-tumour activity”. Further, the “inhibition of growth of Calu-6 tumour xenograft” value is given as 49% in the assay with Calu-6 tumour xenograft (1.5 mg/kg/day, P<0.01); 69% in the assay with Calu-6 tumour xenograft (3 mg/kg/day, P<0.00001); 91% in the assay with Calu-6 tumour xenograft (6 mg/kg/day, P<0.00001).
